Laboratory results reported in US6753345B2, “7-hexanolytaxol and methods for preparing the same” (Hauser, Inc., priority 1998, dated 2004).
In brackets after ≈: the same amount, converted by molar mass. Read-outs that look alike come from different tables or passages of the source.

Legend:
[1] = test system: SNB-19; assay: SRB cytotoxicity screening assay (CNS Cancer)
[2] = test system: MCF7; assay: SRB cytotoxicity screening assay (Breast Cancer)
[3] = test system: 786-0; assay: SRB cytotoxicity screening assay (Renal Cancer)
[4] = test system: UACC-257; assay: SRB cytotoxicity screening assay (Melanoma)
[5] = test system: M14; assay: SRB cytotoxicity screening assay (Melanoma)
[6] = test system: HCC-2998; assay: SRB cytotoxicity screening assay (Colon Cancer)
[7] = test system: PC-3; assay: SRB cytotoxicity screening assay (Prostate Cancer)
[8] = test system: SF-539; assay: SRB cytotoxicity screening assay (CNS Cancer)
[9] = test system: K-562; assay: SRB cytotoxicity screening assay (Leukemia)
[10] = test system: OVCAR-5; assay: SRB cytotoxicity screening assay (Ovarian)
[11] = test system: OVCAR-3; assay: SRB cytotoxicity screening assay (Ovarian)
[12] = test system: RXF-393; assay: SRB cytotoxicity screening assay (Renal Cancer); conditions: Homo sapiens, RXF 393, 48 h
[13] = test system: SW-620; assay: SRB cytotoxicity screening assay (Colon Cancer)
[14] = test system: CAKI-1; assay: SRB cytotoxicity screening assay (Renal Cancer)
[15] = test system: NCI-H226; assay: SRB cytotoxicity screening assay (Non-Small Cell Lung Cancer)
[16] = test system: NCI-H322M; assay: cells; conditions: Homo sapiens, 48 h, read-out: Log10 GI50 (converted)
[17] = test system: NCI-H460; assay: SRB cytotoxicity screening assay (Non-Small Cell Lung Cancer)
[18] = test system: IGR-OV1; assay: SRB cytotoxicity screening assay (Ovarian)
[19] = test system: U251; assay: SRB cytotoxicity screening assay (CNS Cancer)
[20] = test system: 26 cell lines; assay: 26 cell line growth inhibition screen, sulforhodamine stain; assay type: cell-based; conditions: 48 h
[21] = test system: MALME-3M; assay: SRB cytotoxicity screening assay (Melanoma)
[22] = test system: CCRF-CEM; assay: SRB cytotoxicity screening assay (Leukemia); conditions: for Log10 TGI: PG=0
[23] = test system: HOP-62; assay: SRB cytotoxicity screening assay (Non-Small Cell Lung Cancer)
[24] = test system: HL-60(TB); conditions: HL-60(TB) (Leukemia); PG=0; 48 hour incubation

`CCCCCC(=O)O[C@H]1C[C@H]2OC[C@@]2(OC(C)=O)[C@H]2[C@H](OC(=O)c3ccccc3)[C@]3(O)C[C@H](OC(=O)[C@H](O)[C@@H](NC(=O)c4ccccc4)c4ccccc4)C(C)=C([C@@H](OC(C)=O)C(=O)[C@]12C)C3(C)C` [7-hexanoyltaxol] was tested, and the GI50 ([1]; Homo sapiens, SNB-19, 48 h, read-out: Log10 GI50 (converted)) was 0.0102 µM, the CC50 ([1]; Homo sapiens, SNB-19, 48 h, read-out: Log10 LC50 (converted)) was greater than 100 µM and the “Log10 TGI” value ([1]; SNB-19 (CNS Cancer), PG=0, 48 hour incubation) was −4.53 molar. The GI50 ([2]; Homo sapiens, MCF7, 48 h, read-out: Log10 GI50 (converted)) was less than 0.01 µM, the CC50 ([2]; Homo sapiens, MCF7, 48 h, read-out: Log10 LC50 (converted)) was greater than 100 µM and the “Log10 TGI” value ([2]; MCF7 (Breast Cancer), PG=0, 48 hour incubation) was −4.73 molar. For the same molecule, the “Log10 TGI” value ([3]; 786-0 (Renal Cancer), PG=0, 48 hour incubation) was −4.88 molar, the GI50 ([3]; Homo sapiens, 786-0, 48 h, read-out: Log10 GI50 (converted)) was less than 0.01 µM and the CC50 ([3]; Homo sapiens, 786-0, 48 h, read-out: Log10 LC50 (converted)) was 36.3 µM. The CC50 ([4]; Homo sapiens, UACC-257, 48 h, read-out: Log10 LC50 (converted)) was greater than 100 µM, the “Log10 TGI” value ([4]; UACC-257 (Melanoma), PG=0, 48 hour incubation) was −4.00 molar and the GI50 ([5]; Homo sapiens, M14, 48 h, read-out: Log10 GI50 (converted)) was less than 0.01 µM. The CC50 ([5]; Homo sapiens, M14, 48 h, read-out: Log10 LC50 (converted)) was 1.58 µM, the “Log10 TGI” value ([5]; M14 (Melanoma), PG=0, 48 hour incubation) was −7.94 molar and the “Log10 TGI” value ([6]; HCC-2998 (Colon Cancer), PG=0, 48 hour incubation) was −7.35 molar. For the same molecule, the GI50 ([6]; Homo sapiens, HCC 2998, 48 h, read-out: Log10 GI50 (converted)) was less than 0.01 µM, the CC50 ([6]; Homo sapiens, HCC 2998, 48 h, read-out: Log10 LC50 (converted)) was 8.32 µM and the GI50 ([7]; Homo sapiens, PC-3, 48 h, read-out: Log10 GI50 (converted)) was less than 0.01 µM. The CC50 ([7]; Homo sapiens, PC-3, 48 h, read-out: Log10 LC50 (converted)) was greater than 100 µM, the “Log10 TGI” value ([7]; PC-3 (Prostate Cancer), PG=0, 48 hour incubation) was −5.48 molar and the GI50 ([8]; Homo sapiens, SF-539, 48 h, read-out: Log10 GI50 (converted)) was less than 0.01 µM. The CC50 ([8]; Homo sapiens, SF-539, 48 h, read-out: Log10 LC50 (converted)) was 1.51 µM, the “Log10 TGI” value ([8]; SF-539 (CNS Cancer), PG=0, 48 hour incubation) was −7.32 molar and the GI50 ([9]; Homo sapiens, K562, 48 h, read-out: Log10 GI50 (converted)) was less than 0.01 µM. The CC50 ([9]; Homo sapiens, K562, 48 h, read-out: Log10 LC50 (converted)) was greater than 100 µM, the “Log10 TGI” value ([9]; K-562 (Leukemia), PG=0, 48 hour incubation) was −7.05 molar and the GI50 ([10]; Homo sapiens, OVCAR-5, 48 h, read-out: Log10 GI50 (converted)) was less than 0.01 µM. The CC50 ([10]; Homo sapiens, OVCAR-5, 48 h, read-out: Log10 LC50 (converted)) was 33.9 µM, the “Log10 TGI” value ([10]; OVCAR-5 (Ovarian), PG=0, 48 hour incubation) was −5.47 molar and the GI50 ([11]; Homo sapiens, OVCAR-3, 48 h, read-out: Log10 GI50 (converted)) was less than 0.01 µM. The CC50 ([11]; Homo sapiens, OVCAR-3, 48 h, read-out: Log10 LC50 (converted)) was 20.9 µM, the “Log10 TGI” value ([11]; OVCAR-3 (Ovarian), PG=0, 48 hour incubation) was −7.65 molar and the GI50 ([12]; read-out: Log10 GI50 (converted)) was less than 0.01 µM. It also gave a CC50 ([12]; read-out: Log10 LC50 (converted)) of 91.2 µM, a GI50 ([13]; Homo sapiens, SW-620, 48 h, read-out: Log10 GI50 (converted)) of less than 0.01 µM and a CC50 ([13]; Homo sapiens, SW-620, 48 h, read-out: Log10 LC50 (converted)) greater than 100 µM. The “Log10 TGI” value ([13]; SW-620 (Colon Cancer), PG=0, 48 hour incubation) was greater than −4.00 molar, the “Log10 TGI” value ([14]; CAKI-1 (Renal Cancer), PG=0, 48 hour incubation) was −4.52 molar and the GI50 ([14]; Homo sapiens, CAKI-1, 48 h, read-out: Log10 GI50 (converted)) was 0.263 µM. The CC50 ([14]; Homo sapiens, CAKI-1, 48 h, read-out: Log10 LC50 (converted)) was greater than 100 µM, the GI50 ([15]; Homo sapiens, NCI-H226, 48 h, read-out: Log10 GI50 (converted)) was less than 0.01 µM and the CC50 ([15]; Homo sapiens, NCI-H226, 48 h, read-out: Log10 LC50 (converted)) was greater than 100 µM. The “Log10 TGI” value ([15]; NCI-H226 (Non-Small Cell Lung Cancer), PG=0, 48 hour incubation) was −4.76 molar, the GI50 [16] was 0.02 µM and the GI50 ([17]; Homo sapiens, NCI-H460, 48 h, read-out: Log10 GI50 (converted)) was less than 0.01 µM. The CC50 ([17]; Homo sapiens, NCI-H460, 48 h, read-out: Log10 LC50 (converted)) was greater than 100 µM, the “Log10 TGI” value ([17]; NCI-H460 (Non-Small Cell Lung Cancer), PG=0, 48 hour incubation) was −4.75 molar and the GI50 ([18]; Homo sapiens, IGROV-1, 48 h, read-out: Log10 GI50 (converted)) was less than 0.01 µM. For the same molecule, the CC50 ([18]; Homo sapiens, IGROV-1, 48 h, read-out: Log10 LC50 (converted)) was greater than 100 µM, the “Log10 TGI” value ([18]; IGR-OV1 (Ovarian), PG=0, 48 hour incubation) was −4.52 molar and the GI50 ([19]; Homo sapiens, U-251, 48 h, read-out: Log10 GI50 (converted)) was less than 0.01 µM. For the same molecule, the CC50 ([19]; Homo sapiens, U-251, 48 h, read-out: Log10 LC50 (converted)) was 32.4 µM, the “Log10 TGI” value ([19]; U251 (CNS Cancer), PG=0, 48 hour incubation) was −4.98 molar and the IC50 ([20]; read-out: Mean IC50 (26 cell line Mean Growth inhibition IC50 value)) was 8 ng/mL (≈ 8.4 nM). For the same molecule, the IC50 ([20]; read-out: Min IC50 (lowest observed IC50 value in 26 cell line screen)) was 1 ng/mL (≈ 1.05 nM), the GI50 ([21]; Homo sapiens, Malme-3M, 48 h, read-out: Log10 GI50 (converted)) was less than 0.01 µM and the CC50 ([21]; Homo sapiens, Malme-3M, 48 h, read-out: Log10 LC50 (converted)) was 81.3 µM. For the same molecule, the “Log10 TGI” value ([21]; MALME-3M (Melanoma), PG=0, 48 hour incubation) was −4.65 molar, the “Log10 TGI” value ([22]; CCRF-CEM (Leukemia), 48 hour incubation) was −6.1 molar and the “Log10 TGI” value ([22]; CCRF-CEM (Leukemia), 48 hour incubation, listed as 7-Hexanoyltaxol) was less than −8.00 molar. The “Log10 LC50” value ([22]; CCRF-CEM (Leukemia), PG=−50, 48 hour incubation) was greater than −4.00 molar, the GI50 ([22]; Homo sapiens, CCRF-CEM, 48 h, read-out: Log10 GI50 (converted)) was less than 0.01 µM and the CC50 ([22]; Homo sapiens, CCRF-CEM, 48 h, read-out: Log10 LC50 (converted)) was greater than 100 µM. For the same molecule, the IC50 ([22]; Homo sapiens, CCRF-CEM, read-out: concentration necessary to achieve primary growth inhibition (percentage growth +50)) was roughly 0.1 µM, the “Log10 TGI” value ([23]; HOP-62 (Non-Small Cell Lung Cancer), PG=0, 48 hour incubation) was −6.52 molar and the GI50 ([23]; Homo sapiens, HOP-62, 48 h, read-out: Log10 GI50 (converted)) was 0.0141 µM. The CC50 ([23]; Homo sapiens, HOP-62, 48 h, read-out: Log10 LC50 (converted)) was 89.1 µM and the “Log10 TGI” value [24] was less than −8.00 molar.
